Measurements: paper PMC6792352, “Limited Chemical Structural Diversity Found to Modulate Thyroid Hormone Receptor in the Tox21 Chemical Library” (Environmental Health Perspectives, 2019)
Counter-ions that a name gives are not always drawn.

Experiment: in vitro
Settings: rat, gh3-tre-luc cells, AC50 (uM) modified / 1000

Compound | CC50 at 24 h
C=CCOCC(O)CO (centres unmarked) [Glycerol 1-allylether] | > 90 µM
CC1CCCO1 (centres unmarked) [2-Methyltetrahydrofuran] | > 90 µM
CC(=O)OCCC(C)C [3-Methylbutyl acetate] | > 90 µM
O=CNc1ccccc1 [Formanilide] | > 90 µM
O=C(O)CCC(=O)O [Butanedioic acid] | > 90 µM
C1N2CN3CN1CN(C2)C3 [Methenamine] | > 50 µM
COC(=O)N[C@H](C(=O)N[C@@H](Cc1ccccc1)[C@@H](O)CN(Cc1ccc(-c2ccccn2)cc1)NC(=O)[C@@H](NC(=O)OC)C(C)(C)C)C(C)(C)C [Atazanavir] | > 50 µM
CCCc1ccccc1 [Propylbenzene] | > 90 µM
COc1cc(C)ccc1O [2-Methoxy-4-methylphenol] | > 90 µM
Cc1cc([N+](=O)[O-])ccc1N [2-Methyl-4-nitroaniline] | > 90 µM
Nc1cc(N)cc(C(=O)O)c1 [3,5-Diaminobenzoic acid] | > 90 µM
Cc1cc(C(C#N)c2ccc(Cl)cc2)c(Cl)cc1NC(=O)c1cc(I)cc(I)c1O (centres unmarked) [Closantel] | 25 µM
CCC(=O)OC(C)c1ccccc1 (centres unmarked) [1-Phenylethyl propionate] | > 90 µM
Cc1cc(O)c2c(c1)O[C@@]1(C)CC[C@H]3C(C)(C)CCC[C@]34CO[C@@H]2[C@H]41 [Siccanin] | 15.9 µM
CC1=C(C(=O)O)N2C(=O)[C@@H](NC(=O)[C@H](N)c3ccc(O)cc3)[C@H]2SC1 [Cefadroxil] | > 20 µM
CCCCOC(=O)C(C)Oc1ccc(Oc2ccc(C(F)(F)F)cn2)cc1 (centres unmarked) [Fluazifop-butyl] | > 90 µM
C=C1[C@H](CO)[C@@H](O)C[C@@H]1n1cnc2c(=O)[nH]c(N)nc21 [Entecavir] | > 50 µM
CCCCCCCCCC(C)C=O (centres unmarked) [2-Methylundecanal] | > 90 µM
CN(C)CCOC1=Cc2ccccc2Sc2ccc(Cl)cc21 [Zotepine] | 6.89 µM
CC(=O)Nc1ccc2c(c1)Cc1cc(NC(C)=O)ccc1-2 [2,7-Acetylaminofluorene] | > 90 µM
CO/N=C(\C(=O)N[C@@H]1C(=O)N2C(C(=O)[O-])=C(C[n+]3ccn4ncccc43)CS[C@H]12)c1nsc(N)n1 [Cefozopran hydrochloride] | > 50 µM
Cc1c(C)n(Cc2ccccc2)c2ccc(C(=O)OCCN(C)C)cc12 [Indocate] | 8.6 µM
C[C@]12CCC(=O)C=C1CC[C@H]1[C@@H]3CC[C@](O)(C(=O)CO)[C@@]3(C)C[C@H](O)[C@@]12F [Fludrocortisone] | > 50 µM

Compound | CC50 at 24 h
CC(=O)Oc1cccc(O)c1 [Resorcinol monoacetate] | > 50 µM
Cc1ccc(C=O)s1 [5-Methyl-2-thiophenecarboxaldehyde] | > 90 µM
O=C(CCC1CCN(Cc2ccccc2)CC1)c1ccc2c(c1)NCCCC2 [Zanapezil fumerate] | > 50 µM
CCCCOCCO [2-Butoxyethanol] | > 90 µM
CCOC(=O)C1=C[C@@H](OC(CC)CC)[C@H](NC(C)=O)[C@@H](N)C1 [Oseltamivir tartrate] | > 50 µM
COc1ccc(OC)c(OC)c1 [1,2,4-Trimethoxybenzene] | > 90 µM
O=c1[nH]cnc2[nH]cc(CN3CCCCC3)c12 [5-(Piperidin-1-ylmethyl)-3,7-dihydro-4H-pyrrolo[2,3-d]pyrimidin-4-one] | > 50 µM
CC(=O)CN(CC(C)=O)N=O [N-Nitrosobis(2-oxopropyl)amine] | > 90 µM
CSc1ccc(C(=O)c2[nH]c(=O)[nH]c2C)cc1 [Enoximone] | > 50 µM
CCCOC(C)=O [Propyl acetate] | > 90 µM
CC(CCO)CCCC(C)(C)O (centres unmarked) [3,7-Dimethyloctane-1,7-diol] | > 90 µM
Cc1cc(C)cc(N)c1 [3,5-Dimethylaniline] | > 90 µM
CCCCCCCCN(C)CCCCCCCC [N-Methyldioctylamine] | > 90 µM
C=C(C)C(=O)OCCOCCOC(=O)C(=C)C [Di(ethylene glycol) dimethacrylate] | > 90 µM
CC(=O)c1c(C)cc(C(C)(C)C)cc1C [4'-tert-Butyl-2',6'-dimethylacetophenone] | > 90 µM
CCCCc1c(C)nc(NCC)[nH]c1=O [Ethirimol] | > 90 µM
CCOC(=O)NC(=S)Nc1ccccc1NC(=S)NC(=O)OCC [Thiophanate] | > 90 µM
CCOC(=O)c1ccccc1C [Ethyl 2-methylbenzoate] | > 90 µM
Nc1ccc(S(=O)(=O)O)c(N)c1 [2,4-Diaminobenzenesulfonic acid] | > 90 µM
CCN(CC)c1ccc2c(-c3ccc(S(=O)(=O)O)cc3S(=O)(=O)[O-])c3ccc(=[N+](CC)CC)cc-3oc2c1 [C.I. Acid Red 52] | 13.4 µM
CC(C)(C)NCC(O)CSc1nc(-c2ccc(C(N)=O)s2)cs1 (centres unmarked) [Arotinolol hydrochloride] | > 50 µM
CNc1ccccc1 [N-Methylaniline] | > 90 µM
OC[C@@H](O)[C@@H](O)[C@H](O)[C@@H](O)CO [D-Glucitol] | > 90 µM

Compound | CC50 at 24 h
CCCCN=C=O [Butyl isocyanate] | > 90 µM
COc1ccc(OC)c(Cl)c1 [2-Chloro-1,4-dimethoxybenzene] | > 90 µM
CCO[Si](OCC)(OCC)c1ccccc1 [Triethoxy(phenyl)silane] | > 90 µM
S=C=Nc1cccc2ccccc12 [alpha-Naphylisothiocyanate] | > 90 µM
FC(F)(F)C(Cl)(Cl)Cl [1,1,1-Trichloro-2,2,2-trifluoroethane] | > 90 µM
O=C(Nc1ccc2c(O)c(N=Nc3ccc(N=Nc4ccc(S(=O)(=O)O)cc4)cc3)c(S(=O)(=O)O)cc2c1)c1ccccc1 [C.I. Direct Red 81 disodium salt] | 35.6 µM
CCC1(C)NC(=O)NC1=O (centres unmarked) [5-Ethyl-5-methylhydantoin] | > 90 µM
CCCCCCCCCCCc1ccccc1 [1-Phenylundecane] | > 90 µM
C=C1CC[C@H]2C[C@@H]1C2(C)C [beta-Pinene] | > 90 µM
CC(C)(CO)[N+](=O)[O-] [2-Methyl-2-nitro-1-propanol] | > 90 µM
O=C(O)c1ccc(CO)o1 [5-(Hydroxymethyl)-2-furoic acid] | > 90 µM
CC(=O)Nc1ccccc1O [2-Acetamidophenol] | > 90 µM
COc1cc2c(cc1N)oc1ccccc12 [2-Methoxy-3-aminodibenzofuran] | > 90 µM
O=C(Nc1ccc(Br)cc1)c1cc(Br)c(Br)s1 [Tibrofan] | 19.8 µM
COc1cc(C)c(/C=C/C(C)=C/C=C/C(C)=C/C(=O)O)c(C)c1C [Acitretin] | > 50 µM
CC(C)c1ccccc1 [Cumene] | > 100 µM
COC(=O)C1=C(C)NC(C)=C(C(=O)O[C@@H]2CCCN(Cc3ccccc3)C2)[C@@H]1c1cccc([N+](=O)[O-])c1 (racemic) [rac Benidipine hydrochloride] | 25.5 µM
NC(=O)CC[C@@H]1NC(=O)[C@H](Cc2ccccc2)NC(=O)[C@H](Cc2ccc(O)cc2)NC(=O)CCSSC[C@@H](C(=O)N2CCC[C@H]2C(=O)N[C@H](CCCN=C(N)N)C(=O)NCC(N)=O)NC(=O)[C@H](CC(N)=O)NC1=O [Desmopressin] | > 50 µM
O=C(CCCN1CCC2(CC1)C(=O)NCN2c1ccccc1)c1ccc(F)cc1 [Spiperone] | 14.1 µM
O=[N+]([O-])c1ccc(Oc2ccc([N+](=O)[O-])cc2)cc1 [1,1'-Oxybis(4-nitrobenzene)] | > 90 µM
CC(N)[C@]12C[C@H]3C[C@H](C[C@H](C3)C1)C2 (some centres unmarked) [Rimantadine hydrochloride] | > 50 µM

Same assay, conditions: rat, gh3-tre-luc cells, AC50 (uM) modified / 1000, Tox21_110001=Tox21_110442; viability, 1 nM T3 present, 24 h

Compound | CC50 at 24 h
C[C@@H]1O[C@@H](O[C@@H]2C=C3CC[C@@H]4[C@H](CC[C@]5(C)[C@@H](c6ccc(=O)oc6)CC[C@]45O)[C@@]3(C)CC2)[C@H](O)[C@H](O)[C@H]1O [Proscillaridin] | > 20 µM

Same assay, conditions: rat, gh3-tre-luc cells, AC50 (uM) modified / 1000, Tox21_110001=Tox21_112829; viability, 1 nM T3 present, 24 h

Compound | CC50 at 24 h
C[C@H](CN1CCOCC1)C(C(=O)N1CCCC1)(c1ccccc1)c1ccccc1 [Dextromoramide tartrate] | > 100 µM

Same assay, conditions: rat, gh3-tre-luc cells, AC50 (uM) modified / 1000, Tox21_110001=Tox21_200517; viability, 1 nM T3 present, 24 h

Compound | CC50 at 24 h
Cc1ccc(N)cc1 [4-Methylaniline hydrochloride] | > 90 µM

Same assay, conditions: rat, gh3-tre-luc cells, AC50 (uM) modified / 1000, Tox21_110001=Tox21_201319; viability, 1 nM T3 present, 24 h

Compound | CC50 at 24 h
Cc1cc(Cl)ccc1OCCCC(=O)O [MCPB] | > 100 µM

Same assay, conditions: rat, gh3-tre-luc cells, AC50 (uM) modified / 1000, Tox21_110001=Tox21_201652; viability, 1 nM T3 present, 24 h

Compound | CC50 at 24 h
O=C1C(Cl)=C(Cl)C(=O)c2ccccc21 [Dichlone] | 31.4 µM

Same assay, conditions: rat, gh3-tre-luc cells, AC50 (uM) modified / 1000, Tox21_110001=Tox21_202229; viability, 1 nM T3 present, 24 h

Compound | CC50 at 24 h
[Cl][Cd][Cl] [Cadmium chloride] | 26.6 µM

Same assay, conditions: rat, gh3-tre-luc cells, AC50 (uM) modified / 1000, Tox21_110001=Tox21_202253; viability, 1 nM T3 present, 24 h

Compound | CC50 at 24 h
c1ccc(N=NNc2ccccc2)cc1 [Diazoaminobenzene] | 69 µM

Same assay, conditions: rat, gh3-tre-luc cells, AC50 (uM) modified / 1000, Tox21_110001=Tox21_202289; viability, 1 nM T3 present, 24 h

Compound | CC50 at 24 h
CCC[N+](=O)[O-] [1-Nitropropane] | > 90 µM

Same assay, conditions: rat, gh3-tre-luc cells, AC50 (uM) modified / 1000, Tox21_110001=Tox21_202947; viability, 1 nM T3 present, 24 h

Compound | CC50 at 24 h
O=C1C(=O)c2cccc3cccc1c23 [Acenaphthenequinone] | > 90 µM

Same assay, conditions: rat, gh3-tre-luc cells, AC50 (uM) modified / 1000, Tox21_110001=Tox21_303000; viability, 1 nM T3 present, 24 h

Compound | CC50 at 24 h
[Cl][Cd][Cl] [Cadmium chloride] | 32.6 µM

Same assay, conditions: rat, gh3-tre-luc cells, AC50 (uM) modified / 1000, Tox21_110001=Tox21_303031; viability, 1 nM T3 present, 24 h

Compound | CC50 at 24 h
O=C1C(Cl)=C(Cl)C(=O)c2ccccc21 [Dichlone] | 7.73 µM

Same assay, conditions: rat, gh3-tre-luc cells, AC50 (uM) modified / 1000, Tox21_110001=Tox21_303249; viability, 1 nM T3 present, 24 h

Compound | CC50 at 24 h
c1ccc(N=NNc2ccccc2)cc1 [Diazoaminobenzene] | 47.9 µM

Same assay, conditions: rat, gh3-tre-luc cells, AC50 (uM) modified / 1000, Tox21_110001=Tox21_303338; viability, 1 nM T3 present, 24 h

Compound | CC50 at 24 h
Cc1cc(Cl)ccc1OCCCC(=O)O [MCPB] | > 90 µM
